The values that follow come from patent US20120100564A1, “Prediction of Memapsin 2 Cleavage Sites” (priority 2010, published 2012).

For one test, the system named is γ-secretase. In words: CTF99 level in APP-transfected CAD cells with γ-secretase inhibitor (Western blot). The class given is cell-based, mouse. Conditions: in both APPIDF and APPSW cells. The procedure: Cell culture, transfection and analysis of APP processing products. Mouse neuronal CAD cell line was cultured with DMEM/F12 media (Invitrogen, Carlsbad, Calif.) containing 10% fetal bovine serum and 2% penicillin/streptomycin. Transient trransfections were performed using Fugene HD (Roche, Sweden) according to the manufacture's instruction. 24 hours later after transfection, total cell lysate and cell media were collected and 1% of Protease inhibitor was added (Calbiochem, Gibbstown, N.J.). Aβ level in media was assayed by Aβ [1-40] Human Fluorimetric ELISA Kit (invitrogen, Carlsbad, Calif.). Conditioned media or total cell lysate from the transiently transfected cells were subjected to 10% or 10-20% tricine SDS-PAGE gels (Invitrogen, Carlsbad, Calif.), and transferred to PVDF membranes. The blots were probed with antibodies. The western blot analysis was used for determining the levels of full-length APP, APP's proteolytic products and β-actin.
APPIDF and APPSW cells were also similar in cellular processing characteristics. […] CTF99 is increased in both APPIDF and APPSW cells when γ-secretase inhibitor DAPT slowed its degradation (FIG. 4A, second line, right lanes). As expected, APP ectodomain fragment from α-secretase cleavage, sAPPα, decreased in both APPIDF and APPSW cells as compared to that in APPWT cells (FIG. 4A, fourth panel).
A general note: A western blot detects proteins with antibodies after separation by electrophoresis.

The target in a further test is T1, human memapsin 2 (Homo sapiens, UniProt P56817).
T1 construct: The ecto-domain of human memapsin 2 was expressed and purified as described previously (Hong et al., 2000); made in house
T1 sequence (P56817 46-457 limits assumed): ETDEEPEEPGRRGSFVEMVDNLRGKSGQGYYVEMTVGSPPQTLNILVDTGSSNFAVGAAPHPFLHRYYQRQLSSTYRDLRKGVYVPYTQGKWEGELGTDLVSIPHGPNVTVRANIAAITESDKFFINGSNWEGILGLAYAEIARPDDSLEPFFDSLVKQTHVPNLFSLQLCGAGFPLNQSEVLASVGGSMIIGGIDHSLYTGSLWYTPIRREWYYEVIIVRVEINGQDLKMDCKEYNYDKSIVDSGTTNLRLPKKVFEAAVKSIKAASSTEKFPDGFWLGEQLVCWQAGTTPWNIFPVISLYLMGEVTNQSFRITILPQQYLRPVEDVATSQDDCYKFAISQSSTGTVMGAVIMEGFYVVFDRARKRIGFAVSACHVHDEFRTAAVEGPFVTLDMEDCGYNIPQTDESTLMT
Briefly: Determination of kcat/KM of memapsin 2 substrate peptides (steady-state kinetics and competitive hydrolysis, ESI LC/MS). The class given is biochemical. The settings on record: steady-state kinetics, substrate 5 μM to 150 μM, pH 4.0, 37° C. The source says: Materials. α-cyan-4 hydroxycinnamic acid, D0- and D6-form acetic anhydride , N-hydroxysuccinimide were purchased from Sigma. Peptide (Des-Ser1)-Cerebellin was purchased from Bachem (Bubendorf, Switzerland). All peptides derived from memapsin 2 potential substrates were synthesized by GenScript (Piscataway, N.J.). The ecto-domain of human memapsin 2 was expressed and purified as described previously (Hong et al., 2000). Monoclonal anti-memapsin 2 antibody 3E7 was purchased from Santa Cruz Biotechnology Inc (Santa Cruz, Calif.). Monoclonal anti-APP antibody 1560, MAB348 and polyclonal anti-APP antibody 5352 were purchased from Millipore (Billerica, Mass.). Monoclonal anti-actin antibody was purchased from Abcam (Cambridge, Mass.).
Determination of kcat/KM of different memapsin 2's substrates. […] Initial velocity was determined by ESI LC/MS, in which the product an substrate peak areas were quantitated. The kinetic parameters, kcat and KM were determined from non-linear regression using Grafit software (Surrey, UK). […] Relative kcat/KM of different substrates were determined by comparing the initial hydrolysis rates to that of VGSC beta 2.
Comparison of the kinetics for peptides derived from memapsin 2 protein substrates. […] The relative kcat/KM values of other twelve peptides were determined from their relative pseudo-first-order hydrolytic rates. […]

By Km is commonly meant the concentration of substrate that gives half-maximal velocity.

Peptide text beside a SMILES is read from it.

`C[C@H](NC(=O)Cc1cc(F)cc(F)c1)C(=O)N[C@H](C(=O)OC(C)(C)C)c1ccccc1` [DAPT]: the CTF99 level entry in the test on γ-secretase is recorded as “increased”.

With `CC[C@H](C)[C@H](NC(=O)[C@H](CCCCN)NC(=O)CNC(=O)[C@H](Cc1c[nH]cn1)NC(=O)CNC(=O)[C@@H](N)CCCNC(=N)N)C(=O)N[C@@H](Cc1ccc(O)cc1)C(=O)N[C@@H](CC(C)C)C(=O)N[C@@H](CCC(N)=O)C(=O)N[C@H](C(=O)N[C@@H](CC(C)C)C(=O)N[C@@H](CC(C)C)C(=O)O)C(C)C` [VGSC-β2] (H-RGHGKIYLQVLL-OH), the Km on human memapsin 2 came to 36.4 µM.
